The source of these data is patent US8614250B2 (Industry-Academic Cooperation Foundation, Yonsei University, priority 2011, dated 2013).

The conditions of test [1]: patients treated for 8 weeks; cited from earlier work.
For test [2] the following is noted: rat; ketosis caused by long-chain and short-chain monocarboxylic acids; cited from earlier work.
Test [3] can be described thus: Liver weight and lipid level in liver tissues of mice fed test diets. The class given is in vivo, C57BL/6J mice. The conditions noted are these: 10 weeks. From the text: (§1) The obesity-inducing control diet used in the test was high-fat diet (HFD: 40% fat calorie, 17 g lard+3% corn oil/100 g diet). […] The normal diet group (Chow) was fed with commercially available rodent chow.
(§2) 5-week-old male C57BL/6J mice (Orient, Korea) were accustomed to the laboratory environment for 1 week while feeding solid feed. Then, they were randomly divided into normal diet, high-fat diet and test groups and bred for a total of 10 weeks. The diet was given between 10 and 11 a.m. every day together with water. Food intake was measured every day and body weight was measured once a week. In order to avoid transient body weight increase after feed intake, body weight was measured 2 hours after removing the feed. After fasting the test animal for at least 12 hours and anesthetizing with diethyl ether, blood, liver and visceral fat (epididymal fat, perirenal fat, mesenteric fat and retroperitoneal fat) were taken and weighed after washing with 0.1 M PBS (pH 7.4). Blood taken from the abdominal aorta was centrifuged at 1000×g for 15 minutes for the separation of plasma.
Lipids were extracted from the liver tissue according to Folch et al.'s method Folch J et al., J Biol Chem. 226: 497-509 (1957)). After adding 1 mL of distilled water to 0.25 g of liver tissue, the liver tissue was homogenized using a Polytron homogenizer (IKA-Werke GmbH & Co., Ultra-Turrax, Staufen, Germany). After adding 5 mL of chloroform:methanol solution (2:1, v/v) to the homogenate and mixing well, the mixture was centrifuged at 1000×g for 10 minutes. After adding 2 mL of chloroform:methanol solution (2:1, v/v) again to the supernatant, the same procedure was repeated to completely separate the lipid components of the liver. After adding 3 mL of chloroform:methanol:0.05% CaCl2 (3:48:47, v/v/v) solution to the remaining pellets and mixing well for 1 minute, followed by centrifugation at 1000×g for 10 minutes, the resulting pellets were completely dried with nitrogen gas. The dried lipids were dissolved in 1 mL of methanol and then analyzed.
The same kit (Bio Clinical System) as that used for the plasma analysis was used to measure the triglyceride and cholesterol levels of the liver tissue.

A short description of test [4]: Body weight gain, food intake and visceral fat-pad weights in mice fed high-fat diet supplemented with adipic acid. The format is in vivo, C57BL/6J mice. Conditions: 0.2% adipic acid in high-fat diet, 10 weeks.
Source text: as §1, §2

A further test deals with aP2 gene expression. As to the kind of experiment: RT-PCR analysis of visceral fat tissues. The class given is in vivo, C57BL/6J mice. Conditions: mRNA, versus HFD. As to the method:
(§3) After adding 1 mL of Trizol agent per 0.1 g of visceral fat tissues, the mixture was homogenized and centrifuged at 12,000×g for 10 min at 4° C. The supernatant was transferred to a new tube and 200 μl of chloroform was added to the tube, followed by vortexing. The same procedure was repeated twice and then the supernatant was transferred to a new tube, followed by addition of isopropanol and the supernatant at 1:1 ratio. The mixture was vigorously shaken 10 times and then incubated for 10 min at room temperature, followed by centrifugation at 12,000×g for 10 min at 4° C. to remove the supernatant. After adding 1 mL of 70% ethanol to the remaining pellet, it was centrifuged at 7,500×g for 5 min at 4° C. After removing the ethanol, the RNA pellet contained in the tube was dried for 5 min at 4° C. and dissolved in nuclease-free water. The RNA sample concentration was measured at a wavelength of 260 nm and 280 nm using a UV/VIS spectrophotometer (Beckman coulter, DU730) and the integrity of RNA sample was verified by agarose gel electrophoresis.
(§4) The RNA sample obtained from the visceral fat tissues was transcribed using oligo dT primer and SuperScript reverse transcriptase (GIBCO BRL, Gaithersburg, Md., USA) to synthesize cDNA. The PCR amplification was performed using the cDNA as templates and primers complementary to cDNA 5′ and 3′ flanking sequence. The amplified products were resolved on agarose gel electrophoresis.

The subject of the next test is PPARγ2 gene expression. Kind of test: RT-PCR analysis of visceral fat tissues. Conditions: mRNA, versus HFD. The class given is in vivo, C57BL/6J mice. As to the method:
as §3, §4

For another test, the system named is IL-6 gene expression. Kind of test: RT-PCR analysis of visceral fat tissues. The conditions noted are these: mRNA. The format is in vivo, C57BL/6J mice. The protocol:
as §3, §4

A further test deals with TNF-α gene expression. Kind of test: RT-PCR analysis of visceral fat tissues. The format is in vivo, C57BL/6J mice. The conditions noted are these: mRNA. As to the method: as §3, §4
For a further test, the system named is C/EBPα gene expression. As to the kind of experiment: RT-PCR analysis of visceral fat tissues. The format is in vivo, C57BL/6J mice. Conditions: mRNA, versus HFD. As to the method:
as §3, §4

Test [5] in a line: Biochemical analysis of blood (plasma lipids, glucose, ALT, AST) in mice fed test diets. The conditions noted are these: 10 weeks. The format is in vivo, C57BL/6J mice.
Source text: as §1, §2
After 10 weeks of breeding, total cholesterol, triglyceride and glucose levels in the plasma and lipid levels in the liver tissue were measured as follows. Total cholesterol, triglyceride, free fatty acid and glucose levels in the plasma were measured twice for each using a commercially available kit (Bio Clinical System). The activity of ALT (alanine aminotransferase) and AST (aspartate aminotransferase) used as liver function indicator were measured twice for each using a commercially available kit (Bio Clinical System, Korea).

Marks after values point to notes of the source that are not given here.

With `CCOC(=O)C1=C(COCCN)NC(C)=C(C(=O)OC)C1c1ccccc1Cl.O=C(O)CCCCC(=O)O` (stereo not drawn) [amlodipine adipate], the symptoms of hypertension entry in test [1] is listed as “alleviated symptoms of hypertension”.

On to `O=C(O)CCCCC(=O)O` [adipic acid], for which the effect on ketosis result in [2] is listed as “effective for improving ketosis”. For the same molecule, in test [3], the “decrease of cholesterol level in liver tissue as compared to HFD” value is given as 44%, the “decrease of free fatty acid level in liver tissue as compared to HFD” value is on record as 37%, the “decrease of triglyceride level in liver tissue as compared to HFD” value came out at 26% and the “reduction of liver absolute weight as compared to HFD” value came to 12%. In test [4], the daily food intake result is on record as “no significant change”, the “decrease of body weight gain as compared to HFD” value amounted to 49%, the “epididymal fat-pad weight as compared to HFD” value is “significantly reduced” and the “mesenteric fat-pad weight as compared to HFD” value is “significantly reduced”. In addition, in test [4], the “perirenal fat-pad weight as compared to HFD” value is recorded as “significantly reduced”, the “reduction of total visceral fat weight as compared to HFD” value amounted to 21% and the “retroperitoneal fat-pad weight as compared to HFD” value was “significantly reduced”. Moreover, the “expression of aP2 gene” value in the test on aP2 gene expression is on record as “significantly decreased”. Moreover, in the test on PPARγ2 gene expression, the “expression of PPARγ2 gene” value is reported as “significantly decreased”. In the test with IL-6 gene expression, the “HFD-induced elevation in the expression of IL-6” value was “significantly reversed”. For the same molecule, the “HFD-induced elevation in the expression of TNF-α” value in the test with TNF-α gene expression is reported as “significantly reversed”. For the same molecule, the “expression of C/EBPα gene” value in the test on C/EBPα gene expression is given as “significantly decreased”. In [5], the “decrease of plasma ALT activity as compared to HFD” value was determined as 40%, the “decrease of plasma AST activity as compared to HFD” value is 27%, the “lower plasma free fatty acid level as compared to HFD” value is recorded as 32% and the “lower plasma total cholesterol level as compared to HFD” value came to 24%. Moreover, in test [5], the “lower plasma triglyceride level as compared to HFD” value is given as 26% and the “reduction of fasting blood sugar level as compared to HFD” value came to 25%. Besides, in test [5] (plasma, mean ± SEM), the ALT is 7.9 ± 0.78^c IU/L, the AST is 8.9 ± 0.28^b IU/L, the Free fatty acid is recorded as 890 ± 56^c uEq/L and the Total cholesterol is listed as 2.66 ± 0.41^b mmol/L. The Triglyceride in [5] (plasma, mean ± SEM) is recorded as 0.89 ± 0.05^b mmol/L. Further, the Glucose in test [5] (plasma, fasted, mean ± SEM) is 6.6 ± 0.41^b mmol/L.
